Source: patent US7473711B2, “Androgen modulators” (Pfizer Inc., priority 2004, dated 2009)
Substitutions are numbered along the chain they refer to. pIC50: −log10 of the molar value. Read-outs that look alike come from different tables or passages of the source.

Experiments:
[1] = target: T1, hAR (human androgen receptor) (Homo sapiens, UniProt P10275); experiment: Competitive binding analysis on hAR extracts with 3H-DHT tracer
T1 construct: made in house; host or cells: baculovirus/Sf9 insect cells (extract)
T1 sequence (P10275 1-920): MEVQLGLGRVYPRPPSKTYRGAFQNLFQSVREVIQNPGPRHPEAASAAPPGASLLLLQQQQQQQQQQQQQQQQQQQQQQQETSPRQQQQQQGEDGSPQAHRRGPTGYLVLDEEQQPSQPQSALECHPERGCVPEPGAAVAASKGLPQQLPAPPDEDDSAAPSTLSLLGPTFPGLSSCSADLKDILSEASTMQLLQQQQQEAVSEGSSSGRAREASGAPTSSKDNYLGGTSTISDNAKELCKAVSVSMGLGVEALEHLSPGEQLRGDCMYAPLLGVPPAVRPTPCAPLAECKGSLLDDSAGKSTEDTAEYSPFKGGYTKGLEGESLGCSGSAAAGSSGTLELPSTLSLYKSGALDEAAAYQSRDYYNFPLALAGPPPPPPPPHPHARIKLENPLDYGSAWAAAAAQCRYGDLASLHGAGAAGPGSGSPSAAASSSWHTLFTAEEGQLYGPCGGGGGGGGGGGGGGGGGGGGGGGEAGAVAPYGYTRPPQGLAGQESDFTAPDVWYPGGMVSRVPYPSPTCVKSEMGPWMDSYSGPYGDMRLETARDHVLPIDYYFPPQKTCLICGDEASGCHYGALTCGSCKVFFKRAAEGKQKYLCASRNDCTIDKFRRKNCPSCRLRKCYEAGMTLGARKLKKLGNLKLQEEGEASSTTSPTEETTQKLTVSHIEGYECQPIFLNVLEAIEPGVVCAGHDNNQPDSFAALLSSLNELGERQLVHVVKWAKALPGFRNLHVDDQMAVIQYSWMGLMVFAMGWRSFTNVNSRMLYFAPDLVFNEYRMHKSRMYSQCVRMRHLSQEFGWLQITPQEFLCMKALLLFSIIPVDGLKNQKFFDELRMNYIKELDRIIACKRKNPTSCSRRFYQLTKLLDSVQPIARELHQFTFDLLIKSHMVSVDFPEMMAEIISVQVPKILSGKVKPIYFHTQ
Protocol: The compounds of Formula I have affinity for the androgen receptor. […] The description below describes how the assay was carried out.
Competitive binding analysis was performed on baculovirus/Sf9 generated hAR extracts in the presence or absence of different concentrations of test agent and a fixed concentration of ^3H-dihydrotestosterone (^3H-DHT) as tracer. This binding assay method is a modification of a protocol previously described (Liao S., et. al. J. Steroid Biochem. 20:11-17 1984). Briefly, progressively decreasing concentrations of compounds are incubated in the presence of hAR extract (Chang et al. P.N.A.S. Vol. 89, pp. […], 1992), hydroxylapatite, and 1 nM ^3H-DHT for one hour at 4° C. Subsequently, the binding reactions are washed three times to completely remove excess unbound ^3H-DHT. hAR bound ^3H-DHT levels are determined in the presence of compounds (i.e. competitive binding) and compared to levels bound when no competitor is present (i.e. maximum binding). Compound binding affinity to the hAR is expressed as the concentration of compound at which one half of the maximum binding is inhibited. Table II below provides the results that were obtained for selected compounds (reported data is the mean of multiple tests as shown below)

[2] = target: T2, androgen receptor in MDA-MB453-MMTV clone 54-19 cells (Homo sapiens, UniProt P10275); experiment: AR antagonist cell assay (MMTV-luciferase reporter, 100 pM DHT); assay type: cell-based
T2 sequence (P10275 1-920 Q868H): T1 sequence (P10275 1-920) with Q868H
Protocol: The compounds ability to antagonize the effects of androgen on the androgen receptor were determined in a whole cell assay as described immediately below.
Experimental Procedure for AR Antagonist Cell Assay
Cell line: MDA-MB453-MMTV clone 54-19. This cell line is a stable transfected cell line with MDA-MB453 cell background (a human breast tumor cell line expressing androgen receptor). A MMTV minimal promoter containing ARE was first cloned in front of a firefly luciferase reporter gene. Then the cascade was cloned into transfection vector pUV120puro. Electroporation method was used for transfecting MDA-MB-453 cell. Puromycin resistant stable cell line was selected. Cell Culture Media and Reagents:
Culture medium: DMEM (high glucose, Gibco cat #: 11960-044), 10% FBS, and 1% L-glutamine
Plating medium: DMEM (phenol red free), 10% charcoal treated HyClone serum, 1% L-glutamine
Assay medium: DMEM (phenol red free), 1% charcoal treated HyClone serum, 1% L-glutamine, and 1% penicillin/streptomycin
3X luciferase buffer: 2% beta-mercaptoethanol, 0.6% ATP, 0.0135% luciferine in cell lysis buffer
• 1. Cells are maintained in culture medium, splitting cells when they reach 80-90% confluence • 2. To test compounds, 10,000 cells/well are plated to opaque 96 cell culture plate in 100 ul/well plating medium, culture for overnight at 37° C. in cell culture incubator • 3. Carefully remove plating medium, then add 80 ul/well of pre-warmed assay medium, add 10 ul/well testing compound (final concentration at) 1000 nM, 200 nM, 40 nM, 8 nM, 1.6 nM, and 0.32 nM), incubate at 37° C. for 30 minutes • 4. Add 10 ul/well freshly prepared DHT (final concentration at 100 pM) to each well, incubate at 37° C. for 17 hr (overnight) • 5. Add 50 ul/well 3X luciferase buffer, incubate at room temperature for 5 minutes, then count on Luminometer
The fold induction over background by 100 pM DHT in the absence of testing compounds is standardized as 100% and experimental result is expressed as percentage of inhibition by testing compounds.
The results are reported as the mean of multiple tests as described below (the numbers of tests are indicated in the footnote). N.D. denotes that the compound was not tested.

[3] = MDA-MB453-MMTV clone 54-19, inhibition of 100 pM DHT induced luciferase, 17 hr; mean of multiple tests; read-out: AR Cell IC50
[4] = baculovirus/Sf9 hAR extract, 1 nM 3H-DHT, one hour at 4° C, mean of multiple tests, read-out: AR Binding IC50

Row | SMILES | pIC50 [1] | pIC50 [2, 3] | pIC50 [1, 4] | pIC50 ([2]; read-out: AR Cell IC50; MDA-MB453-MMTV clone 54-19, inhibition of 100 pM DHT induced luciferase, 17 hr; mean of multiple tests)
1 | N#Cc1ccc(O[C@H](CO)COc2ccccc2)cc1C(F)(F)F [Example 29, (1R)-4-(1-Hydroxymethyl-2-phenoxy-ethoxy)-2-trifluoromethyl-benzonitrile] | 7.36 | 6.93 | – | –
2 | CC(CCCCOc1ccc(C#N)c(C(F)(F)F)c1)Oc1ccc(C#N)c(C(F)(F)F)c1 (centres unmarked) [Example 25, 4,4′-[Hexane-1,5-diylbis(oxy)]bis[2-(trifluoromethyl)benzonitrile]] | – | < 6.00 | 6.80 | –
3 | CC(C)(CCOc1ccc(C#N)c(C(F)(F)F)c1)Oc1ccc(C#N)c(C(F)(F)F)c1 [Example 18, 4,4′-[(3-Methylbutane-1,3-diyl)bis(oxy)]bis[2-(trifluoromethyl)benzonitrile]] | – | < 6.00 | 6.39 | –
4 | CCOCC(COc1ccc(C#N)c(C(F)(F)F)c1)Oc1ccc(C#N)c(C(F)(F)F)c1 (centres unmarked) [Example 6, 4,4′-[(3-Ethoxypropane-1,2-diyl)bis(oxy)]bis[2-(trifluoromethyl)benzonitrile]] | – | < 6.00 | 6.91 | –
5 | C[C@@H](C[C@H](C)Oc1ccc(C#N)c(C(F)(F)F)c1)Oc1ccc(C#N)c(C(F)(F)F)c1 (stereo in doubt) [Example 20, 4,4′-[(2S,4S)-Pentane-2,4-diylbis(oxy)]bis[2-(trifluoromethyl)benzonitrile]] | 7.77 | 6.80 | – | –
6 | C=CCC(CCOc1ccc(C#N)c(C(F)(F)F)c1)Oc1ccc(C#N)c(C(F)(F)F)c1 (centres unmarked) [Example 17, 4,4′-[Hex-1-ene-4,6-diylbis(oxy)]bis[2-(trifluoromethyl)benzonitrile]] | 7.33 | < 6.00 | – | –
7 | COC[C@@H](COc1ccccc1)Oc1ccc(C#N)c(C(F)(F)F)c1 [Example 31, (1S)-4-(1-Methoxymethyl-2-phenoxy-ethoxy)-2-trifluoromethyl-benzonitrile] | 7.34 | 6.90 | – | –
8 | CC1(C)CC1(COc1ccc(C#N)c(C(F)(F)F)c1)Oc1ccc(C#N)c(C(F)(F)F)c1 (centres unmarked) [Example 10, 4-[1-(4-Cyano-3-trifluoromethyl-phenoxymethyl)-2,2-dimethyl-cyclopropoxy]-2-trifluoromethyl-benzonitrile] | – | 6.35 | 6.76 | –
9 | C[C@H](CCOc1ccc(C#N)c(C(F)(F)F)c1)Oc1ccc(C#N)c(C(F)(F)F)c1 [Example 14, 4-({(3R)-3-[4-Cyano-3-(trifluoromethyl)phenoxy]butyl}oxy)-2-(trifluoromethyl)benzonitrile] | – | 6.04 | 6.55 | –
10 | CC(COc1ccc(C#N)c(C(F)(F)F)c1)COc1ccc(C#N)c(C(F)(F)F)c1 [Example 12, 4,4′-[(2-Methylpropane-1,3-diyl)bis(oxy)]bis[2-(trifluoromethyl)benzonitrile]] | – | < 6.00 | 6.63 | –
11 | CCCCCCC(COc1ccc(C#N)c(C(F)(F)F)c1)Oc1ccc(C#N)c(C(F)(F)F)c1 (centres unmarked) [Example 9, 4,4′-[Octane-1,2-diylbis(oxy)]bis[2-(trifluoromethyl)benzonitrile]] | – | 6.27 | 6.96 | –
12 | C=CC(COc1ccc(C#N)c(C(F)(F)F)c1)Oc1ccc(C#N)c(C(F)(F)F)c1 (centres unmarked) [Example 3, 4,4′-[But-1-ene-3,4-diylbis(oxy)]bis[2-(trifluoromethyl)benzonitrile]] | – | 6.34 | 6.94 | –
13 | CC(CCOc1ccc(C#N)c(C(F)(F)F)c1)Oc1ccc(C#N)c(C(F)(F)F)c1 (centres unmarked) [Example 13, 4,4′-[Butane-1,3-diylbis(oxy)]bis[2-(trifluoromethyl)benzonitrile]] | 8.00 | – | – | 7.00
14 | CCCC(Oc1ccc(C#N)c(C(F)(F)F)c1)C(CC)COc1ccc(C#N)c(C(F)(F)F)c1 (centres unmarked) [Example 19, 4-{[3-(4-Cyanophenoxy)-2-ethylhexyl]oxy}bis[2-(trifluoromethyl)benzonitrile]] | – | < 6.00 | 6.67 | –
15 | CC(C)CCCC(COc1ccc(C#N)c(C(F)(F)F)c1)Oc1ccc(C#N)c(C(F)(F)F)c1 (centres unmarked) [Example 8] | – | < 6.00 | 6.01 | –
16 | CC(COc1ccc(C#N)c(C(F)(F)F)c1)C(C)Oc1ccc(C#N)c(C(F)(F)F)c1 (centres unmarked) [Example 16, 4-{3-[4-Cyano-3-(trifluoromethyl)phenoxy]-1,2-dimethylpropoxy}-2-(trifluoromethyl)benzonitrile] | – | – | 6.43 | –
17 | CC(CCOc1ccc(C#N)c(C(F)(F)F)c1)CCOc1ccc(C#N)c(C(F)(F)F)c1 [Example 26, 4,4′-[(3-Methylpentane-1,5-diyl)bis(oxy)]bis[2-(trifluoromethyl)benzonitrile]] | – | 6.67 | 6.81 | –
18 | CC(CCC(C)Oc1ccc(C#N)c(C(F)(F)F)c1)Oc1ccc(C#N)c(C(F)(F)F)c1 (stereo in doubt) [Example 23, 4,4′-[(2S,5S)-Hexane-2,5-diylbis(oxy)]bis[2-(trifluoromethyl)benzonitrile]] | – | 6.69 | 6.74 | –
